According to PMC6934184, “Selective DNA-PKcs inhibition extends the therapeutic index of localized radiotherapy and chemotherapy” (The Journal of Clinical Investigation, 2019):

Target: T1, MAP4K3 (GLK) (Homo sapiens, UniProt Q8IVH8)
T1 construct: purchased Thermo Fisher Scientific (Life Technologies) SelectScreen
Test: SelectScreen LanthaScreen
Type: binding
Conditions: 1 µM
In short: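 SelectScreen broad panel; activity (Z'LYTE, Adapta) plus binding formats. ATP: Km app for CSF1R Z'LYTE; 10 for CAMK1 Adapta. Readout = % per kinase.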

T1 sequence (Q8IVH8 whole entry): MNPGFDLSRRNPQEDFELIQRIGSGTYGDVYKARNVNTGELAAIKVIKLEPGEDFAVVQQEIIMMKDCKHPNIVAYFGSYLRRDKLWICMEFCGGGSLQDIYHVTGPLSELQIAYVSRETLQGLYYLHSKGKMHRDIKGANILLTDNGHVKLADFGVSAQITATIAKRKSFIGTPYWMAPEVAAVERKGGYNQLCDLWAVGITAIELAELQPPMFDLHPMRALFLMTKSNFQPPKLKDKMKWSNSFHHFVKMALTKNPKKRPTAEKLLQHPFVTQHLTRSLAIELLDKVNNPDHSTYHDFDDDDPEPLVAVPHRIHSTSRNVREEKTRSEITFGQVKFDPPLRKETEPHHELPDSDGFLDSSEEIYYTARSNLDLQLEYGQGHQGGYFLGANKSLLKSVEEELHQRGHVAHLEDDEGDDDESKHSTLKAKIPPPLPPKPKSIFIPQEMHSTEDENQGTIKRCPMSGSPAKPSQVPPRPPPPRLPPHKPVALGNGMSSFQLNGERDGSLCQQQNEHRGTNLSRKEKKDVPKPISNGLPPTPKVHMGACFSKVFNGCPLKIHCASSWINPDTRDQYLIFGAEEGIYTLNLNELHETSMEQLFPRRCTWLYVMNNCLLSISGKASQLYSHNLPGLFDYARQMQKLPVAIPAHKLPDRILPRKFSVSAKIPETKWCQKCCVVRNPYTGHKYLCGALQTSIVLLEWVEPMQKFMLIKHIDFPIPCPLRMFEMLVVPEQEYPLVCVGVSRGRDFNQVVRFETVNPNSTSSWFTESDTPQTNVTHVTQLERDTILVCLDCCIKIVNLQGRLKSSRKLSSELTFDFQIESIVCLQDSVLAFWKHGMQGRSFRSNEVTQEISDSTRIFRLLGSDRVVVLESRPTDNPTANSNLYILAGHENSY

Which “% displacement” value does the source give for `CN(C(=O)CN1CCOCC1)c1ccc2sc3c(-c4cccc5c(=O)cc(N6CC7CCC(C6)O7)oc45)cccc3c2c1` [NU5455] here?
Its value is -2.1%.
